Where no end group is shown, it is not given here. Where only a bound is given, the exact number is not on record here.

For experiment [1], the system named is Escherichia coli NCTC 10418. Kind of experiment: microbe, parasite or virus in culture. The format is cell-based. The following applies: for MIC: Escherichia coli, NCTC10418, compound alone, broth microdilution, Iso-Sensitest Broth, range 128–0 μg/mL, 5 × 10^5 CFU/mL, visual read-out, duplicate, read-out: MIC, E. coli NCTC 10418. As to the method: (§1) The Minimum Inhibitory Concentrations (MIC) of compounds 1–27 were evaluated through a broth microdilution assay against susceptible strains of Escherichia coli (Gram–negative) and Staphylococcus aureus (Gram-positive).
(§2) The antibacterial activity of the peptides and peptide/antibiotic combinations were tested by the broth microdilution assay according to [24]. Escherichia coli NCTC 10,418 and Staphylococcus aureus NCTC 12,981 were obtained from the National Collection of Type Cultures, UK. Escherichia coli G69 was a clinical isolate as previously described.
(§3) Briefly, all bacterial strains were cultured on nutrient agar (Sigma-Aldrich, Gillingham, UK) plates and incubated for 24 h at 37 °C prior to MIC determination. In addition, known quantities of each test sample were dissolved in DMSO and then diluted in ISB (Iso- Sensitest Broth, Oxoid, Basingstoke, UK) to give a range concentration of 128–0 μg/mL, unless stated differently. […] Finally, the overnight cultures of each of the tested strains were suspended to an inoculum density of approximately 1.0 × 10^8 CFU/mL in phosphate buffered saline (PBS), consisting of 137 mM NaCl, 3 mM KCl, 8 mM Na2HPO4, and […] (Oxoid, Basingstoke, UK). The cell suspensions were standardized by adjusting the optical density to 0.1 at 600 nm (Thermo Scientific UV-Vis Spectrophotometer, Abingdon, UK) before being diluted 1:100 in ISB prior to inoculation
(§4) The assays were performed by microdilution using 96-well microtiter plates with a final inoculum of 5 × 10^5 CFU/mL and each sample was tested in duplicate in at least two independent experiments in order to confirm the reliability of the data. Results were determined by visual inspection of the wells and the presence of an evident opaque medium or white pellets were indicative of bacterial growth. The MIC values were recorded as the lowest concentration at which no bacterial growth was detected.
(§5) Table S4. Minimum inhibitory concentration (MIC) of synthesised peptides and of reference antibiotics
(§6) novobiocin and norfloxacin.

Experiment [2] concerns Staphylococcus aureus NCTC 12981. Description: microbe, parasite or virus in culture. The format is cell-based. The settings on record: for MIC: Staphylococcus aureus, NCTC12981, compound alone, broth microdilution, Iso-Sensitest Broth, range 128–0 μg/mL, 5 × 10^5 CFU/mL, visual read-out, duplicate, read-out: MIC, S. aureus NCTC 12981. The protocol:
as §1, §2, §3, §4, §5, §6

The test system of experiment [3] is multidrug resistant clinical isolate E. coli G69. Description: Norfloxacin potentiation assay (MIC of norfloxacin with fixed concentration of peptide or PAβN). The format is cell-based, Escherichia coli. The settings on record: broth microdilution, duplicate; for MIC of norfloxacin, E. coli G69, +128 μg/mL of peptide: fixed 128 μg/mL peptide. As to the method: (§7) In order to gather more evidence on the potential mechanisms of action, the effects of the peptides in combination with the quinolone antibiotic norfloxacin were determined. Norfloxacin is active against Gram-negative bacteria, generally achieving entry via porin channels, but is also able to enter the bacterial cell via the membrane in porin-deficient mutants. Therefore, any membrane permeability mechanism would not be expected to have a significant effect on improving the activity of norfloxacin in porin-competent strains. This is indeed what was observed (Table S5), which added weight to our hypothesis that our very short peptides may be acting as membrane permeability enhancers for novobiocin.
as §2
as §3, with “inoculation […]” for “inoculation”
(§8) The assays were performed by microdilution using 96-well microtiter plates with a final inoculum of 5 × 10^5 CFU/mL and each sample was tested in duplicate in at least two independent experiments in order to confirm the reliability of the data. Results were determined by visual inspection of the wells and the presence of an evident opaque medium or white pellets were indicative of bacterial growth. The MIC values were recorded as the lowest concentration at which no bacterial growth was detected. […]
(§9) potentiating novobiocin. Assays were performed at fixed concentration of 128 μg/mL against susceptible E. coli 10418 and multidrug resistant clinical isolate E. coli G69. Potentiation assay for norfloxacin was also performed in presence of 64 μg/mL of RND efflux pump inhibitor PAβN. All tests were repeated in […]
(§10) Compound Sequence MIC of norfloxacin (μg/mL) […]
(§11) inhibitor PaβN but no potentiation was observed, so the assay was not repeated at lower concentrations.

The subject of experiment [4] is susceptible E. coli 10418. The description is as above. The following applies: broth microdilution, duplicate; for MIC of norfloxacin, E. coli 10418, +128 μg/mL of peptide: fixed 128 μg/mL peptide. The format is cell-based, Escherichia coli. As to the method:
as §7, §2
as §3, with “inoculation […]” for “inoculation”
as §8, §9, §10, §11

Experiment [5] deals with susceptible E. coli NCTC 10418. Description: Novobiocin potentiation assay (MIC of novobiocin with fixed concentration of peptide or PAβN). The arrangement: key to MIC of Novobiocin, E. coli NCTC 10418, +128 μg/mL added peptide / MIC of Novobiocin, E. coli NCTC 10418, +32 μg/mL added peptide: Non potentiating (NP) indicated no reduction in the MIC of novobiocin was observed. The experiment is classed as cell-based, Escherichia coli. The settings on record: for potentiation of the MIC of novobiocin, result in words: added peptide, wording covers susceptible and multi-drug resistant strain; for MIC of Novobiocin, E. coli NCTC 10418, +128 μg/mL added peptide / MIC of Novobiocin, E. coli NCTC 10418, +32 μg/mL added peptide: Iso-Sensitest Broth, 5 × 10^5 CFU/mL, visual read-out; for MIC of Novobiocin, E. coli NCTC 10418, +128 μg/mL added peptide: fixed 128 μg/mL peptide; for MIC of Novobiocin, E. coli NCTC 10418, +32 μg/mL added peptide: fixed 32 μg/mL peptide. As to the method:
(§12) The peptides were also tested in combination with antibiotics novobiocin and norfloxacin. Novobiocin has low efficacy against Gram-negative bacteria due to its hydrophobicity, giving limited cell permeability.
as §2, §3, §4

Experiment [6] relates to multi-drug resistant clinical isolate E. coli G69. Described as above. The format is cell-based, Escherichia coli. The arrangement: key to MIC of Novobiocin, E. coli G69, +32 μg/mL added peptide / MIC of Novobiocin, E. coli G69, +128 μg/mL added peptide: Non potentiating (NP) indicated no reduction in the MIC of novobiocin was observed. The settings on record: for MIC of Novobiocin, E. coli G69, +128 μg/mL added peptide / MIC of Novobiocin, E. coli G69, +32 μg/mL added peptide: Iso-Sensitest Broth, 5 × 10^5 CFU/mL, visual read-out; for MIC of Novobiocin, E. coli G69, +128 μg/mL added peptide: fixed 128 μg/mL peptide; for MIC of Novobiocin, E. coli G69, +32 μg/mL added peptide: fixed 32 μg/mL peptide. The protocol: as §12, §2, §3, §4

Regarding `CCn1cc(C(=O)O)c(=O)c2cc(F)c(N3CCNCC3)cc21` [Norfloxacin, reference compound], the MIC is 0.062 mg/L in experiment [1]; 2 mg/L in experiment [2]; greater than 128 mg/L in experiment [3] (Escherichia coli, norfloxacin alone); 0.062 mg/L in experiment [4] (Escherichia coli, E.COLI10418, norfloxacin alone).
For the compound `CO[C@@H]1[C@@H](OC(N)=O)[C@@H](O)[C@H](Oc2ccc3c(O)c(NC(=O)c4ccc(O)c(CC=C(C)C)c4)c(=O)oc3c2C)OC1(C)C` [Novobiocin], the MIC in experiment [1] was 32 mg/L; in experiment [2], 4 mg/L; in experiment [5] (Escherichia coli, NCTC10418, novobiocin alone, no peptide, broth microdilution, duplicate), 32 mg/L; in experiment [6] (Escherichia coli, novobiocin alone, no peptide, broth microdilution, duplicate) it was greater than 128 mg/L.
As for “RPWPPR [Compound 23, proline-rich cationic peptide RPWPPR, amidated at the C-terminus]”, the “potentiation of the MIC of novobiocin, result in words” value in experiment [5] was “shows potentiation, but only against the susceptible strain”. The “MIC of Novobiocin, E. coli NCTC 10418, +128 μg/mL added peptide” value in experiment [5] (broth microdilution, duplicate) is 4 mg/L. Moreover, the “MIC of Novobiocin, E. coli G69, +128 μg/mL added peptide” value in experiment [6] (broth microdilution, duplicate) is “NP”. Further, the “MIC of norfloxacin, E. coli G69, +128 μg/mL of peptide” value (“MIC of norfloxacin, E. coli G69” for short) in experiment [3] was greater than 128 mg/L. In addition, the “MIC of norfloxacin, E. coli 10418, +128 μg/mL of peptide” value in experiment [4] is 0.062 mg/L.
For “RWRW [Compound 5, short cationic peptide RWRW, amidated at the C-terminus]”, in experiment [5] (broth microdilution, duplicate), the “MIC of Novobiocin, E. coli NCTC 10418, +32 μg/mL added peptide” value came to 64 mg/L and the “MIC of Novobiocin, E. coli NCTC 10418, +128 μg/mL added peptide” value is 2 mg/L. Besides, in experiment [6] (broth microdilution, duplicate), the “MIC of Novobiocin, E. coli G69, +32 μg/mL added peptide” value was 64 mg/L and the “MIC of Novobiocin, E. coli G69, +128 μg/mL added peptide” value is 16 mg/L. Moreover, in experiment [3], the “MIC of norfloxacin, E. coli G69” value is greater than 128 mg/L. In experiment [4], the “MIC of norfloxacin, E. coli 10418, +128 μg/mL of peptide” value stood at 0.062 mg/L.
With “WKPLPPR [Compound 24, proline-rich cationic peptide WKPLPPR, amidated at the C-terminus]”, the “potentiation of the MIC of novobiocin, result in words” value in experiment [5] is listed as “no synergism was observed”. For the same compound, in experiment [5] (broth microdilution, duplicate), the “MIC of Novobiocin, E. coli NCTC 10418, +128 μg/mL added peptide” value is listed as “NP”. Also, the “MIC of Novobiocin, E. coli G69, +128 μg/mL added peptide” value in experiment [6] (broth microdilution, duplicate) is given as “NP”. Also, in experiment [3], the “MIC of norfloxacin, E. coli G69” value was greater than 128 mg/L. Besides, the “MIC of norfloxacin, E. coli 10418, +128 μg/mL of peptide” value in experiment [4] was 0.062 mg/L.
For the compound “WKWKW [Compound 15, short cationic peptide WKWKW, amidated at the C-terminus]”, in experiment [5] (broth microdilution, duplicate), the “MIC of Novobiocin, E. coli NCTC 10418, +32 μg/mL added peptide” value stood at 8 mg/L and the “MIC of Novobiocin, E. coli NCTC 10418, +128 μg/mL added peptide” value turned out to be 4 mg/L. The “potentiation of novobiocin against multi-drug resistant E. coli, result in words” value in experiment [6] (E. coli G69, added peptide) is recorded as “restore the susceptibility”. Also, in experiment [6] (broth microdilution, duplicate), the “MIC of Novobiocin, E. coli G69, +32 μg/mL added peptide” value is 128 mg/L and the “MIC of Novobiocin, E. coli G69, +128 μg/mL added peptide” value amounted to 8 mg/L. In addition, the “MIC of norfloxacin, E. coli G69” value in experiment [3] was greater than 128 mg/L. Moreover, in experiment [4], the “MIC of norfloxacin, E. coli 10418, +128 μg/mL of peptide” value was found to be 0.125 mg/L.
For “WRRQRW [Compound 20, short cationic peptide WRRQRW, C-terminal amide; commercial sample from ThermoFisher]”, in experiment [5] (broth microdilution, duplicate), the “MIC of Novobiocin, E. coli NCTC 10418, +32 μg/mL added peptide” value was found to be 16 mg/L and the “MIC of Novobiocin, E. coli NCTC 10418, +128 μg/mL added peptide” value is 4 mg/L. Moreover, in experiment [6] (broth microdilution, duplicate), the “MIC of Novobiocin, E. coli G69, +32 μg/mL added peptide” value is recorded as “NP” and the “MIC of Novobiocin, E. coli G69, +128 μg/mL added peptide” value came out at 32 mg/L. In experiment [3], the “MIC of norfloxacin, E. coli G69” value is greater than 128 mg/L. For the same compound, the “MIC of norfloxacin, E. coli 10418, +128 μg/mL of peptide” value in experiment [4] worked out at 0.062 mg/L.
Take “WRWR [Compound 4, short cationic peptide WRWR, amidated at the C-terminus]”: in experiment [5] (broth microdilution, duplicate), the “MIC of Novobiocin, E. coli NCTC 10418, +32 μg/mL added peptide” value worked out at 32 mg/L and the “MIC of Novobiocin, E. coli NCTC 10418, +128 μg/mL added peptide” value worked out at 2 mg/L. Besides, in experiment [6] (broth microdilution, duplicate), the “MIC of Novobiocin, E. coli G69, +128 μg/mL added peptide” value is given as “NP”. Further, the “MIC of norfloxacin, E. coli G69” value in experiment [3] was greater than 128 mg/L. The “MIC of norfloxacin, E. coli 10418, +128 μg/mL of peptide” value in experiment [4] is 0.062 mg/L.
As for WRWRW-NH2 [Compound 6], the “MIC, E. coli NCTC 10418” value in experiment [1] (NCTC 10418, 24 h) was found to be 64 mg/L. For the same compound, in experiment [2] (NCTC 12981, 24 h), the “MIC, S. aureus NCTC 12981” value turned out to be 64 mg/L.

For the origin of these results see PMC7730182, “Synthesis and in Silico Modelling of the Potential Dual Mechanistic Activity of Small Cationic Peptides Potentiating the Antibiotic Novobiocin against Susceptible and Multi-Drug Resistant Escherichia coli” (International Journal of Molecular Sciences, 2020).
